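Cultured in 96-well plates, cells were exposed to test compound for 48 hours across five concentrations. GI50 marks 50% less growth. TGI denotes the concentration required for complete inhibition of growth.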
Legend:
Experiment in all cases: NCI anticancer screen, dose series, 48 h
SN12C renal = test system: SN12C renal
HL-60(TB) leukemia = test system: HL-60(TB) leukemia
SF-295 CNS = test system: SF-295 CNS
SK-MEL-5 melanoma = test system: SK-MEL-5 melanoma
OVCAR-8 ovarian = test system: OVCAR-8 ovarian
SK-OV-3 ovarian = test system: SK-OV-3 ovarian
HCC-2998 colon = test system: HCC-2998 colon
SK-MEL-28 melanoma = test system: SK-MEL-28 melanoma
SF-539 CNS = test system: SF-539 CNS
NCI/ADR-RES ovarian = test system: NCI/ADR-RES ovarian
OVCAR-3 ovarian = test system: OVCAR-3 ovarian
HOP-62 NSCLC = test system: HOP-62 NSCLC
OVCAR-4 ovarian = test system: OVCAR-4 ovarian
M14 melanoma = test system: M14 melanoma
UO-31 renal = test system: UO-31 renal
HT29 colon = test system: HT29 colon
UACC-257 melanoma = test system: UACC-257 melanoma
SF-268 CNS = test system: SF-268 CNS
PC-3 prostate = test system: PC-3 prostate
MALME-3M melanoma = test system: MALME-3M melanoma
MDA-MB-231 breast = test system: MDA-MB-231 breast
HOP-92 NSCLC = test system: HOP-92 NSCLC
CAKI-1 renal = test system: CAKI-1 renal
TK-10 renal = test system: TK-10 renal
HCT-15 colon = test system: HCT-15 colon
NCI-H460 lung = test system: NCI-H460 lung
K-562 leukemia = test system: K-562 leukemia
RPMI-8226 leukemia = test system: RPMI-8226 leukemia
UACC-62 melanoma = test system: UACC-62 melanoma
BT-549 breast = test system: BT-549 breast
ACHN renal = test system: ACHN renal
U251 CNS = test system: U251 CNS
HS 578T breast = test system: HS 578T breast
SK-MEL-2 melanoma = test system: SK-MEL-2 melanoma
A498 renal = test system: A498 renal
HCT-116 colon = test system: HCT-116 colon
DU-145 prostate = test system: DU-145 prostate
SW-620 colon = test system: SW-620 colon
A549 NSCLC = test system: A549 NSCLC
MCF7 breast = test system: MCF7 breast
RXF 393 renal = test system: RXF 393 renal
786-0 renal = test system: 786-0 renal
KM12 colon = test system: KM12 colon
OVCAR-5 ovarian = test system: OVCAR-5 ovarian
SNB-75 CNS = test system: SNB-75 CNS
SNB-19 CNS = test system: SNB-19 CNS
MOLT-4 leukemia = test system: MOLT-4 leukemia
NCI-H522 lung = test system: NCI-H522 lung
NCI-H23 lung = test system: NCI-H23 lung
NCI-H226 lung = test system: NCI-H226 lung
IGROV1 ovarian = test system: IGROV1 ovarian
MDA-MB-435 = test system: MDA-MB-435
LOX IMVI melanoma = test system: LOX IMVI melanoma
CCRF-CEM leukemia = test system: CCRF-CEM leukemia
T-47D breast = test system: T-47D breast
COLO 205 colon = test system: COLO 205 colon

## O=C(c1ccc(Cl)cc1)c1no[n+]([O-])c1C(=O)c1ccc(Cl)cc1
SN12C renal
  GI50: 13 µM
  TGI: 28.3 µM
HL-60(TB) leukemia
  GI50: 6.06 µM
  TGI: 20.7 µM
SF-295 CNS
  GI50: 14.3 µM
  TGI: 29 µM
SK-MEL-5 melanoma
  GI50: 15.9 µM
  TGI: 30.5 µM
OVCAR-8 ovarian
  GI50: 14.5 µM
  TGI: 33.8 µM
SK-OV-3 ovarian
  GI50: 21 µM
  TGI: 42.9 µM
HCC-2998 colon
  GI50: 21 µM
  TGI: 44.8 µM
SK-MEL-28 melanoma
  GI50: 14.1 µM
  TGI: 27.8 µM
SF-539 CNS
  GI50: 3.24 µM
  TGI: 8.17 µM
NCI/ADR-RES ovarian
  GI50: 20.5 µM
  TGI: 49.8 µM
OVCAR-3 ovarian
  GI50: 6.6 µM
  TGI: 14.5 µM
HOP-62 NSCLC
  GI50: 28.5 µM
  TGI: > 74.7 µM
OVCAR-4 ovarian
  GI50: 13.3 µM
  TGI: 27.5 µM
M14 melanoma
  GI50: 13.3 µM
  TGI: 27.2 µM
UO-31 renal
  GI50: 1.64 µM
  TGI: 3.2 µM
HT29 colon
  GI50: 11.2 µM
  TGI: 26.4 µM
UACC-257 melanoma
  GI50: 14.5 µM
  TGI: 27.8 µM
SF-268 CNS
  GI50: 14.1 µM
  TGI: 33.2 µM
PC-3 prostate
  GI50: 8.76 µM
  TGI: 22 µM
MALME-3M melanoma
  GI50: 2.18 µM
  TGI: 4.2 µM
MDA-MB-231 breast
  GI50: 10.9 µM
  TGI: 26.8 µM
HOP-92 NSCLC
  GI50: 1.77 µM
  TGI: 4.26 µM
CAKI-1 renal
  GI50: 4.58 µM
  TGI: 12.2 µM
TK-10 renal
  GI50: 15 µM
  TGI: 28.3 µM
HCT-15 colon
  GI50: 12.6 µM
  TGI: 31 µM
NCI-H460 lung
  GI50: 23.6 µM
  TGI: 63 µM
K-562 leukemia
  GI50: 5.32 µM
  TGI: 31.8 µM
RPMI-8226 leukemia
  GI50: 4.6 µM
  TGI: 24.4 µM
UACC-62 melanoma
  GI50: 13.7 µM
  TGI: 27.3 µM
BT-549 breast
  GI50: 9.21 µM
  TGI: 22 µM
ACHN renal
  GI50: 5.69 µM
  TGI: 17.9 µM
U251 CNS
  GI50: 15.8 µM
  TGI: 30.2 µM
HS 578T breast
  GI50: 21.2 µM
  TGI: 68.2 µM
SK-MEL-2 melanoma
  GI50: 14.9 µM
  TGI: 28.7 µM
A498 renal
  GI50: 16.4 µM
  TGI: 36.4 µM
HCT-116 colon
  GI50: 10.7 µM
  TGI: 27.4 µM
DU-145 prostate
  GI50: 17 µM
  TGI: 31 µM
SW-620 colon
  GI50: 11.8 µM
  TGI: 25.1 µM
A549 NSCLC
  GI50: 23.5 µM
  TGI: 62.1 µM
MCF7 breast
  GI50: 11.3 µM
  TGI: 31.7 µM
RXF 393 renal
  GI50: 11.5 µM
  TGI: 23.8 µM
786-0 renal
  GI50: 3.97 µM
  TGI: 13.7 µM
KM12 colon
  GI50: 20.3 µM
  TGI: 45.6 µM
OVCAR-5 ovarian
  GI50: 16.5 µM
  TGI: 35.3 µM
SNB-75 CNS
  GI50: 15 µM
  TGI: 29 µM
SNB-19 CNS
  GI50: 32.7 µM
  TGI: > 95.8 µM
MOLT-4 leukemia
  GI50: 4.73 µM
  TGI: 22.1 µM
NCI-H522 lung
  GI50: 1.74 µM
  TGI: 3.37 µM
NCI-H23 lung
  GI50: 16.5 µM
  TGI: 40.9 µM
NCI-H226 lung
  GI50: 15.8 µM
  TGI: 31.1 µM
IGROV1 ovarian
  GI50: 3.87 µM
  TGI: 10.3 µM
MDA-MB-435
  GI50: 13.5 µM
  TGI: 26.8 µM
LOX IMVI melanoma
  GI50: 1.79 µM
  TGI: 3.59 µM
CCRF-CEM leukemia
  GI50: 2 µM
  TGI: 4.75 µM
T-47D breast
  GI50: 13.1 µM
  TGI: 43.1 µM
COLO 205 colon
  GI50: 14.6 µM
  TGI: 34.3 µM

Reference: PubChem BioAssay (NCI)
